In PubChem BioAssay AID248 (DTP/NCI, 2004):
Where “and” joins values, the source holds several entries; their conditions need not be identical. Identical values can stand only once. Toxic doses and inconclusive results are not listed. No stated cut-off is given here; in the data, active means T/C of 150% or more; inactive means T/C below 125%.

Test system: L1210 leukemia ip in BDF1 mice, survival T/C
Assay: NCI In Vivo Anticancer Drug Screen. Data for tumor model L1210 Leukemia (intraperitoneal) in B6D2F1 (BDF1) mice
Settings: endpoint: mean survival time, higher = longer survival
How it was run: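 Mice bearing the transplanted tumor received compound or vehicle. Survival of the treated group was divided by that of the vehicle-treated control group to give the ratio.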

[1] = dose: 100.0 mg/kg/injection, schedule: Q01DX001 (ip), vehicle: saline
[2] = dose: 200.0 mg/kg/injection, schedule: Q01DX001 (ip), vehicle: saline
[3] = dose: 400.0 mg/kg/injection, schedule: Q01DX001 (ip), vehicle: saline
[4] = dose: 50.0 mg/kg/injection, schedule: Q01DX001 (ip), vehicle: carboxymethylcellulose (CMC)
[5] = dose: 100.0 mg/kg/injection, schedule: Q01DX001 (ip), vehicle: carboxymethylcellulose (CMC)
[6] = dose: 200.0 mg/kg/injection, schedule: Q01DX001 (ip), vehicle: carboxymethylcellulose (CMC)
[7] = dose: 400.0 mg/kg/injection, schedule: Q01DX001 (ip), vehicle: carboxymethylcellulose (CMC)
[8] = dose: 100.0 mg/kg/injection, schedule: Q01DX009 (ip), vehicle: Klucel (hydroxypropylcellulose) (HPC)
[9] = dose: 100.0 mg/kg/injection, schedule: Q04DX003 (ip), vehicle: Klucel (hydroxypropylcellulose) (HPC)
[10] = dose: 200.0 mg/kg/injection, schedule: Q01DX009 (ip), vehicle: Klucel (hydroxypropylcellulose) (HPC)
[11] = dose: 200.0 mg/kg/injection, schedule: Q04DX003 (ip), vehicle: Klucel (hydroxypropylcellulose) (HPC)
[12] = dose: 100.0 mg/kg/injection, schedule: Q01DX009 (ip), vehicle: saline with Tween-80
[13] = dose: 200.0 mg/kg/injection, schedule: Q01DX009 (ip), vehicle: saline with Tween-80
[14] = dose: 400.0 mg/kg/injection, schedule: Q01DX009 (ip), vehicle: saline with Tween-80
[15] = dose: 25.0 mg/kg/injection, schedule: Q04DX002 (ip), vehicle: Klucel (hydroxypropylcellulose) (HPC)
[16] = dose: 50.0 mg/kg/injection, schedule: Q04DX002 (ip), vehicle: Klucel (hydroxypropylcellulose) (HPC)
[17] = dose: 100.0 mg/kg/injection, schedule: Q04DX002 (ip), vehicle: Klucel (hydroxypropylcellulose) (HPC)
[18] = dose: 100.0 mg/kg/injection, schedule: Q04DX003 (ip), vehicle: saline with Tween-80
[19] = dose: 200.0 mg/kg/injection, schedule: Q04DX003 (ip), vehicle: saline with Tween-80

Measured: T/C

C[C@]12C(=O)OC(=O)[C@H]1[C@H]1CC[C@@H]2C1
inactive: [1] 110 % of control | dose: 100.0 mg/kg/injection, schedule: Q01DX009 (ip), vehicle: acetone 102 % of control | dose: 100.0 mg/kg/injection, schedule: Q04DX003 (ip), vehicle: acetone 104 % of control | [2] 106 % of control | dose: 200.0 mg/kg/injection, schedule: Q01DX009 (ip), vehicle: acetone 89 % of control | dose: 200.0 mg/kg/injection, schedule: Q04DX003 (ip), vehicle: acetone 101 % of control | [3] 111 % of control | dose: 400.0 mg/kg/injection, schedule: Q04DX003 (ip), vehicle: acetone 104 % of control

COc1cc(CC(=O)C2CN(C(=O)Cc3cc(Cl)c(OC)c(OC)c3)c3ccc(Br)cc32)cc(Cl)c1OC (stereo not drawn)
inactive: dose: 50.0 mg/kg/injection, schedule: Q01DX001 (ip), vehicle: saline 96 % of control | [1] 96 % of control | [2] 90 % of control | [3] 93 % of control

CC(=O)Nc1ccc(-c2cnc3ccccc3c2)cc1
inactive: dose: 5.0 mg/kg/injection, schedule: Q01DX001 (ip), vehicle: saline 106 % of control | dose: 10.0 mg/kg/injection, schedule: Q01DX001 (ip), vehicle: saline 106 % of control | dose: 20.0 mg/kg/injection, schedule: Q01DX001 (ip), vehicle: saline 97 % of control | dose: 40.0 mg/kg/injection, schedule: Q01DX001 (ip), vehicle: saline 90 % of control | dose: 80.0 mg/kg/injection, schedule: Q01DX001 (ip), vehicle: saline 95 % of control

O=C(c1ccccc1)c1ccc(NC(=S)Nc2ccc(C(=O)c3ccccc3)cc2)cc1
inactive: dose: 20.0 mg/kg/injection, schedule: Q01DX005 (ip), vehicle: saline with Tween-80 97 % of control | dose: 40.0 mg/kg/injection, schedule: Q01DX005 (ip), vehicle: saline with Tween-80 92 % of control | dose: 80.0 mg/kg/injection, schedule: Q01DX005 (ip), vehicle: saline with Tween-80 92 % of control | dose: 160.0 mg/kg/injection, schedule: Q01DX005 (ip), vehicle: saline with Tween-80 95 % of control | dose: 320.0 mg/kg/injection, schedule: Q01DX005 (ip), vehicle: saline with Tween-80 97 % of control

O=C(CCCC(=O)OCC(F)(F)C(F)(F)C(F)(F)C(F)F)OCC(F)(F)C(F)(F)C(F)(F)C(F)F
inactive: [4] 102 % of control | [5] 100 % of control | [6] 100 % of control | [7] 100 % of control

Oc1ccc2ccccc2c1-c1c(O)ccc2ccccc12
inactive: dose: 12.5 mg/kg/injection, schedule: Q01DX Z (ip), vehicle: other 106 % of control | dose: 25.0 mg/kg/injection, schedule: Q01DX Z (ip), vehicle: other 103 % of control | dose: 50.0 mg/kg/injection, schedule: Q01DX Z (ip), vehicle: other 106 % of control | [8] 97 % of control | dose: 100.0 mg/kg/injection, schedule: Q01DX Z (ip), vehicle: other 116 % of control | [9] 111 % of control | [10] 94 % of control | [11] 94 % of control | dose: 400.0 mg/kg/injection, schedule: Q04DX003 (ip), vehicle: Klucel (hydroxypropylcellulose) (HPC) 103 % of control

CCCCOB=O
inactive: [12] 96 % of control | [13] 106 % of control | [14] 98 % of control

COC(=O)C1(C)CCCC2(C)C1CCC13OCC(CC21)C1(C(C)C)OC31 (stereo not drawn)
inactive: [12] 96 % of control | [13] 93 % of control | [14] 95 % of control

Cc1nc(Br)c(Br)n1C
inactive: [15] 110 % of control | dose: 50.0 mg/kg/injection, schedule: Q01DX009 (ip), vehicle: carboxymethylcellulose (CMC) 103 % of control and 104 % of control | [16] 92 % of control | dose: 100.0 mg/kg/injection, schedule: Q01DX009 (ip), vehicle: carboxymethylcellulose (CMC) 96 % of control and 118 % of control | [17] 100 % of control and 91 % of control | dose: 100.0 mg/kg/injection, schedule: Q04DX002 (ip), vehicle: carboxymethylcellulose (CMC) 105 % of control | dose: 100.0 mg/kg/injection, schedule: Q04DX003 (ip), vehicle: carboxymethylcellulose (CMC) 91 % of control | dose: 200.0 mg/kg/injection, schedule: Q01DX009 (ip), vehicle: carboxymethylcellulose (CMC) 96 % of control and 110 % of control | dose: 200.0 mg/kg/injection, schedule: Q04DX002 (ip), vehicle: carboxymethylcellulose (CMC) 97 % of control and 105 % of control | dose: 200.0 mg/kg/injection, schedule: Q04DX003 (ip), vehicle: carboxymethylcellulose (CMC) 104 % of control

CNC(=O)Nc1c(C)cccc1Cl
inactive: [8] 94 % of control | [10] 95 % of control | dose: 400.0 mg/kg/injection, schedule: Q01DX009 (ip), vehicle: Klucel (hydroxypropylcellulose) (HPC) 105 % of control

CCCc1nc2c(c(=O)n(C)c(=O)n2C)n1C
inactive: dose: 45.0 mg/kg/injection, schedule: Q01DX001 (ip), vehicle: saline 97 % of control and 98 % of control | dose: 67.0 mg/kg/injection, schedule: Q01DX001 (ip), vehicle: saline 97 % of control and 103 % of control | [1] 94 % of control and 101 % of control | dose: 150.0 mg/kg/injection, schedule: Q01DX001 (ip), vehicle: saline 98 % of control and 101 % of control

O=C(O)CC1COc2ccccc2O1 (stereo not drawn)
inactive: [5] 91 % of control | [6] 105 % of control | [7] 94 % of control

COC1(OC)CCC=C(CNc2ncnc3nc[nH]c23)C1
inactive: dose: 100.0 mg/kg/injection, schedule: Q01DX001 (ip), vehicle: saline with Tween-80 102 % of control | dose: 200.0 mg/kg/injection, schedule: Q01DX001 (ip), vehicle: saline with Tween-80 94 % of control | dose: 400.0 mg/kg/injection, schedule: Q01DX001 (ip), vehicle: saline with Tween-80 100 % of control

COc1cc2ccnc(Cc3ccccc3)c2cc1OC
inactive: dose: 50.0 mg/kg/injection, schedule: Q01DX009 (ip), vehicle: saline with Tween-80 103 % of control | [12] 93 % of control and 94 % of control | [18] 102 % of control | [13] 88 % of control | [19] 100 % of control

SC1(SC2(S)CCCCC2)CCCCC1
inactive: [18] 97 % of control | [19] 101 % of control | dose: 400.0 mg/kg/injection, schedule: Q04DX003 (ip), vehicle: saline with Tween-80 113 % of control

COc1cccc(NC(=O)Nc2ccccc2Cl)c1
inactive: dose: 100.0 mg/kg/injection, schedule: Q01DX009 (ip), vehicle: gum acacia 93 % of control | dose: 100.0 mg/kg/injection, schedule: Q04DX003 (ip), vehicle: gum acacia 92 % of control | dose: 200.0 mg/kg/injection, schedule: Q01DX009 (ip), vehicle: gum acacia 98 % of control | dose: 200.0 mg/kg/injection, schedule: Q04DX003 (ip), vehicle: gum acacia 90 % of control | dose: 400.0 mg/kg/injection, schedule: Q01DX009 (ip), vehicle: gum acacia 96 % of control | dose: 400.0 mg/kg/injection, schedule: Q04DX003 (ip), vehicle: gum acacia 94 % of control

CCN(CC)CC(=O)NCC(CCN1CCCCC1)(Cc1cccc2ccccc12)C(C)C (stereo not drawn)
inactive: dose: 12.5 mg/kg/injection, schedule: Q04DX003 (ip), vehicle: saline 106 % of control | dose: 25.0 mg/kg/injection, schedule: Q04DX003 (ip), vehicle: saline 98 % of control | dose: 50.0 mg/kg/injection, schedule: Q04DX003 (ip), vehicle: saline 97 % of control

Cc1ccc(NCC(=O)NN)cc1F
inactive: [15] 102 % of control | [16] 109 % of control | [17] 109 % of control and 112 % of control

COC(=O)Cc1c(C(=O)OC)c(O)cc(O)c1C(=O)OC
inactive: [4] 100 % of control | [5] 97 % of control | [6] 100 % of control | [7] 100 % of control

CCCCCC[n+]1cccc(C(N)=O)c1
inactive: [9] 100 % of control | [11] 94 % of control

CCCCOc1ccc(C(N)=S)c2ccccc12
inactive: dose: 100.0 mg/kg/injection, schedule: Q01DX001 (ip), vehicle: Klucel (hydroxypropylcellulose) (HPC) 105 % of control | dose: 200.0 mg/kg/injection, schedule: Q01DX001 (ip), vehicle: Klucel (hydroxypropylcellulose) (HPC) 112 % of control | dose: 400.0 mg/kg/injection, schedule: Q01DX001 (ip), vehicle: Klucel (hydroxypropylcellulose) (HPC) 94 % of control
